Assays:
[1] = oral metformin; cited from earlier work
cell cultures = details: cited from earlier work
MGPP3 cells = test: MGPP3 cell growth (optical density); format: cell-based; details: Mus musculus
Experimental: FIGS. 4A-4D provide graphs of MGPP3 growth at the indicated concentrations of metformin (FIG. 4A), PAMAM-OH (FIG. 4B), PAMAM-OH and metformin (FIG. 4C), and P4-MET (FIG. 4D).
The ability of the dendrimers was also tested for their ability to deliver metformin to MGPP3 cells, a mouse glioblastoma cell line sensitive to metformin. Specifically, MGPP3 cells were exposed to metformin, PAMAM-OH, PAMAM-OH with metformin, or P4-MET.

U87MG cells = test: U87MG cell growth (optical density); format: cell-based; details: Homo sapiens, U-87 MG
Experimental: FIGS. 2A-2D provide graphs of U87MG growth at the indicated concentrations of metformin (FIG. 2A), PAMAM-OH (FIG. 2B), PAMAM-OH and metformin (FIG. 2C), and P4-MET (FIG. 2D).
The ability of the dendrimers was tested for their ability to deliver metformin to U87MG cells, a human glioma cell line sensitive to metformin. Specifically, U87MG cells were exposed to metformin, PAMAM-OH, PAMAM-OH with metformin, or P4-MET.

Panc-1 cells = test: Panc-1 cell growth (optical density); format: cell-based; details: Homo sapiens
Experimental: The ability of the dendrimers was also tested for their ability to deliver metformin to Panc-1 cells, a human pancreatic cancer cell line. Specifically, Panc-1 cells were exposed to metformin, PAMAM-OH, and P4-MET.

Ln229 cells = test: Ln229 cell growth (optical density); format: cell-based; details: Homo sapiens, LN-229
Experimental: FIGS. 3A-3D provide graphs of Ln229 growth at the indicated concentrations of metformin (FIG. 3A), PAMAM-OH (FIG. 3B), PAMAM-OH and metformin (FIG. 3C), and P4-MET (FIG. 3D).
The ability of the dendrimers was also tested for their ability to deliver metformin to Ln229 cells, a human glioblastoma cell line sensitive to metformin. Specifically, Ln229 cells were exposed to metformin, PAMAM-OH, PAMAM-OH with metformin, or P4-MET.

UNKPC cells = test: UNKPC cell growth (optical density); format: cell-based
Experimental: The ability of the dendrimers was also tested for their ability to deliver metformin to UNKPC cells, a pancreatic cancer cell line. Specifically, […] were exposed to metformin, PAMAM-OH, or P4-MET.

[2] = in vivo; cited from earlier work
[3] = system: bone marrow-derived macrophages (BMDM); test: BMDM growth (optical density); format: cell-based; details: Mus musculus; BMDM cells, 72 hours
Experimental: FIGS. 5A-5D provide graphs of bone marrow-derived macrophages (BMDM) growth at the indicated concentrations of metformin (FIG. 5A), PAMAM-OH (FIG. 5B), PAMAM-OH and metformin (FIG. 5C), and P4-MET (FIG. 5D).
The ability of the dendrimers was also tested for their ability to deliver metformin to bone marrow-derived macrophages (BMDM). Specifically, BMDM cells were exposed to metformin, PAMAM-OH, PAMAM-OH with metformin, or P4-MET for 72 hours.

IC50 (U87MG cells): 14.4 mM
IC50 (Panc-1 cells): 5.24 mM
Compound: CN(C)C(=N)NC(=N)N [metformin, 1,1-dimethylbiguanide]
pharmacological concentrations in patients [1]: less than 50 μM
typical effective concentration in cell cultures (cell cultures): in the mM range
IC50 (MGPP3 cells): 12.5 mM
IC50 (Ln229 cells): 0.99 mM
IC50 (UNKPC cells): 1.64 mM
gastrointestinal-related side effects, share of patients [2]: 20-30%
IC50 [3]: 3.53 mM

— patent US20250195670A1, “METFORMIN NANOFORMULATIONS AND METHODS OF USE THEREOF” (priority 2022, published 2025)
